Measurements: patent EP0908457B1, “3-(1,2-benzisothiazol- and isoxazol-5-Y1)-2,4(1H,3H)-pyrimidinedione or thione and 3-(1,2-benzisothiazol- and isoxazol-5-y1)-4(3H)-pyrimidinone or thione herbicidal agents” (BASF AKTIENGESELLSCHAFT, priority 1997, dated 1999)

Experiments:
Type in all cases: in vivo
Cyperus iria = assay: Preemergence weed control under flooded paddy conditions, CYPIR (Rice Flatsedge); conditions: flooded paddy; for herbicidal effect rating, CYPIR / CYPIR herbicidal rating: rated three to four weeks after treatment; for CYPIR: herbicidal effect rating 0-9, three to four weeks after treatment; on herbicidal effect rating, CYPIR: meaning of each grade not given here
Sagittaria pygmaea, L. = assay: Preemergence weed control under flooded paddy conditions, SAGPY (Arrowhead (Pygmaea)); conditions: flooded paddy; for herbicidal effect rating, SAGPY / SAGPY herbicidal rating: rated three to four weeks after treatment; for SAGPY: herbicidal effect rating 0-9, three to four weeks after treatment; on herbicidal effect rating, SAGPY: meaning of each grade not given here
[1] = tested on: Cyperus serotinus, Rottb.; assay: Preemergence weed control under flooded paddy conditions, CYPSE (Flatsedge); conditions: for herbicidal effect rating, CYPSE / CYPSE herbicidal rating: rated three to four weeks after treatment; for CYPSE: herbicidal effect rating 0-9, three to four weeks after treatment; on herbicidal effect rating, CYPSE: meaning of each grade not given here
[2] = tested on: Echinochloa oryzoides (Ard.) Fritsch.; assay: Preemergence weed control under flooded paddy conditions, ECHORC (Watergrass (Calif.)); conditions: flooded paddy; for herbicidal effect rating, ECHORC / ECHORC herbicidal rating: rated three to four weeks after treatment; for ECHORC: herbicidal effect rating 0-9, three to four weeks after treatment; on herbicidal effect rating, ECHORC: meaning of each grade not given here
[3] = tested on: Monochoria vaginalis, Presl.; assay: Preemergence weed control under flooded paddy conditions, MOOVA (Monochoria); conditions: flooded paddy; for herbicidal effect rating, MOOVA / MOOVA herbicidal rating: rated three to four weeks after treatment; for MOOVA: herbicidal effect rating 0-9, three to four weeks after treatment; on herbicidal effect rating, MOOVA: meaning of each grade not given here
[4] = Rate 0.0320 kg/ha, preemergence
[5] = Rate 0.0620 kg/ha, preemergence
[6] = Rate 0.1250 kg/ha, preemergence
[7] = Rate 0.2500 kg/ha, preemergence
[8] = 0.0320 kg/ha, preemergence weeds
[9] = 0.0620 kg/ha, preemergence weeds
[10] = 0.1250 kg/ha, preemergence weeds
[11] = 0.2500 kg/ha, preemergence weeds
[12] = Rate 0.0320 kg/ha, preemergence weeds
[13] = Rate 0.0620 kg/ha, preemergence weeds
[14] = Rate 0.1250 kg/ha, preemergence weeds
[15] = Rate 0.2500 kg/ha, preemergence weeds

## CCS(=O)(=O)NC(=O)C(C)Oc1ccc(C)cc1-c1nsc2ccc(-n3c(=O)cc(C(F)(F)F)n(C)c3=O)cc12 (centres unmarked) [Example 571, Propionamide, 2-{{2-{5-[3,6-dihydro-3-methyl-2,6-dioxo-4-(trifluoromethyl)-1(2H)-pyrimidinyl]-1,2-benzisothiazol-3-yl}-p-tolyl}oxy}-N-(ethylsulfonyl)]
Cyperus iria; [4]
  herbicidal effect rating, CYPIR: 0.0
Cyperus iria; [5]
  herbicidal effect rating, CYPIR: 3.0
Cyperus iria; [6]
  herbicidal effect rating, CYPIR: 3.0
Cyperus iria; [7]
  herbicidal effect rating, CYPIR: 9.0
Sagittaria pygmaea, L.; [4]
  herbicidal effect rating, SAGPY: 0.0
Sagittaria pygmaea, L.; [5]
  herbicidal effect rating, SAGPY: 0.0
Sagittaria pygmaea, L.; [6]
  herbicidal effect rating, SAGPY: 0.0
Sagittaria pygmaea, L.; [7]
  herbicidal effect rating, SAGPY: 0.0
[1]; [4]
  herbicidal effect rating, CYPSE: 0.0
[1]; [5]
  herbicidal effect rating, CYPSE: 0.0
[1]; [6]
  herbicidal effect rating, CYPSE: 0.0
[1]; [7]
  herbicidal effect rating, CYPSE: 0.0
[2]; [4]
  herbicidal effect rating, ECHORC: 0.0
[2]; [5]
  herbicidal effect rating, ECHORC: 2.0
[2]; [6]
  herbicidal effect rating, ECHORC: 3.0
[2]; [7]
  herbicidal effect rating, ECHORC: 6.0
[3]; [4]
  herbicidal effect rating, MOOVA: 0.0
[3]; [5]
  herbicidal effect rating, MOOVA: 6.0
[3]; [6]
  herbicidal effect rating, MOOVA: 7.0
[3]; [7]
  herbicidal effect rating, MOOVA: 9.0

## COC(=O)COc1ccc(C)cc1-c1nsc2cc(Cl)c(-n3c(=O)cc(C(F)(F)F)n(C)c3=O)cc12 [Example 443, Acetic acid, {{2-{6-chloro-5-[3,6-dihydro-3-methyl-2,6-dioxo-4-(trifluoromethyl)-1(2H)-pyrimidinyl]-1,2-benzisothiazol-3-yl}-p-tolyl}oxy}-, methyl ester]
Cyperus iria; [8]
  CYPIR: 4.0
Cyperus iria; [9]
  CYPIR: 6.0
Cyperus iria; [10]
  CYPIR: 7.0
Cyperus iria; [11]
  CYPIR: 7.0
Sagittaria pygmaea, L.; [8]
  SAGPY: 3.0
Sagittaria pygmaea, L.; [9]
  SAGPY: 3.0
Sagittaria pygmaea, L.; [10]
  SAGPY: 4.0
Sagittaria pygmaea, L.; [11]
  SAGPY: 5.0
[1]; [8]
  CYPSE: 0.0
[1]; [9]
  CYPSE: 0.0
[1]; [10]
  CYPSE: 0.0
[2]; [8]
  ECHORC: 6.0
[2]; [9]
  ECHORC: 5.0
[2]; [10]
  ECHORC: 7.0
[2]; [11]
  ECHORC: 9.0
[3]; [8]
  MOOVA: 5.0
[3]; [9]
  MOOVA: 6.0
[3]; [10]
  MOOVA: 7.0
[3]; [11]
  MOOVA: 7.0

## CCC(C(=O)OCc1nsc2ccc(-n3c(=O)cc(C(F)(F)F)n(C)c3=O)cc12)c1ccccc1 (centres unmarked) [Example 473, 2,4(1H,3H)-Pyrimidinedione, 3-[3-(hydroxymethyl)-1,2-benzisothiazol-5-yl]-1-methyl-6-(trifluoromethyl)-, 2-phenylbutyrate (ester)]
Cyperus iria; 0.0320 kg/ha, preemergence
  CYPIR herbicidal rating: 2.0
Cyperus iria; 0.0620 kg/ha, preemergence
  CYPIR herbicidal rating: 4.0
Cyperus iria; 0.1250 kg/ha, preemergence
  CYPIR herbicidal rating: 6.0
Cyperus iria; 0.2500 kg/ha, preemergence
  CYPIR herbicidal rating: 8.0
Sagittaria pygmaea, L.; 0.0320 kg/ha, preemergence
  SAGPY herbicidal rating: 0.0
Sagittaria pygmaea, L.; 0.0620 kg/ha, preemergence
  SAGPY herbicidal rating: 0.0
Sagittaria pygmaea, L.; 0.1250 kg/ha, preemergence
  SAGPY herbicidal rating: 2.0
Sagittaria pygmaea, L.; 0.2500 kg/ha, preemergence
  SAGPY herbicidal rating: 3.0
[1]; 0.0320 kg/ha, preemergence
  CYPSE herbicidal rating: 0.0
[1]; 0.0620 kg/ha, preemergence
  CYPSE herbicidal rating: 0.0
[1]; 0.2500 kg/ha, preemergence
  CYPSE herbicidal rating: 5.0
[2]; 0.0320 kg/ha, preemergence
  ECHORC herbicidal rating: 1.0
[2]; 0.0620 kg/ha, preemergence
  ECHORC herbicidal rating: 2.0
[2]; 0.1250 kg/ha, preemergence
  ECHORC herbicidal rating: 2.0
[2]; 0.2500 kg/ha, preemergence
  ECHORC herbicidal rating: 4.0
[3]; 0.0320 kg/ha, preemergence
  MOOVA herbicidal rating: 4.0
[3]; 0.0620 kg/ha, preemergence
  MOOVA herbicidal rating: 6.0
[3]; 0.1250 kg/ha, preemergence
  MOOVA herbicidal rating: 7.0
[3]; 0.2500 kg/ha, preemergence
  MOOVA herbicidal rating: 7.0

## CN(O)C(=O)c1nsc2ccc(-n3c(=O)cc(C(F)(F)F)n(C)c3=O)cc12 [Example 398, 1,2-Benzisothiazole-3-carbohydroxamic acid, 5-[3,6-dihydro-3-methyl-2,6-dioxo-4-(trifluoromethyl)-1(2H)-pyrimidinyl]-N-methyl-]
Cyperus iria; [4]
  herbicidal effect rating, CYPIR: 0.0
Cyperus iria; [5]
  herbicidal effect rating, CYPIR: 3.0
Cyperus iria; [6]
  herbicidal effect rating, CYPIR: 6.0
Cyperus iria; [7]
  herbicidal effect rating, CYPIR: 8.0
Sagittaria pygmaea, L.; [4]
  herbicidal effect rating, SAGPY: 0.0
Sagittaria pygmaea, L.; [5]
  herbicidal effect rating, SAGPY: 0.0
Sagittaria pygmaea, L.; [6]
  herbicidal effect rating, SAGPY: 0.0
Sagittaria pygmaea, L.; [7]
  herbicidal effect rating, SAGPY: 3.0
[1]; [4]
  herbicidal effect rating, CYPSE: 0.0
[1]; [5]
  herbicidal effect rating, CYPSE: 0.0
[1]; [6]
  herbicidal effect rating, CYPSE: 3.0
[1]; [7]
  herbicidal effect rating, CYPSE: 3.0
[2]; [4]
  herbicidal effect rating, ECHORC: 0.0
[2]; [5]
  herbicidal effect rating, ECHORC: 2.0
[2]; [6]
  herbicidal effect rating, ECHORC: 3.0
[2]; [7]
  herbicidal effect rating, ECHORC: 8.0
[3]; [4]
  herbicidal effect rating, MOOVA: 6.0
[3]; [5]
  herbicidal effect rating, MOOVA: 9.0
[3]; [6]
  herbicidal effect rating, MOOVA: 9.0
[3]; [7]
  herbicidal effect rating, MOOVA: 9.0

## 2,4(1H,3H)-Pyrimidinedione, 1-methyl-3-[(2-methylbutyryl)-1,2-benzisothiazol-5-yl]-6-(trifluoromethyl)- [Example 433]
Cyperus iria; [8]
  CYPIR: 5.5
Cyperus iria; [9]
  CYPIR: 8.5
Cyperus iria; [10]
  CYPIR: 9.0
Cyperus iria; [11]
  CYPIR: 9.0
Sagittaria pygmaea, L.; [8]
  SAGPY: 2.0
Sagittaria pygmaea, L.; [9]
  SAGPY: 4.5
Sagittaria pygmaea, L.; [10]
  SAGPY: 6.0
Sagittaria pygmaea, L.; [11]
  SAGPY: 7.0
[1]; [8]
  CYPSE: 0.0
[1]; [9]
  CYPSE: 6.0
[1]; [10]
  CYPSE: 7.5
[1]; [11]
  CYPSE: 7.5
[2]; [8]
  ECHORC: 8.0
[2]; [9]
  ECHORC: 9.0
[2]; [10]
  ECHORC: 9.0
[2]; [11]
  ECHORC: 9.0
[3]; [8]
  MOOVA: 8.5
[3]; [9]
  MOOVA: 9.0
[3]; [10]
  MOOVA: 9.0
[3]; [11]
  MOOVA: 9.0

## Cn1c(C(F)(F)F)cc(=O)n(-c2ccc3snc(CO[N+](=O)[O-])c3c2)c1=O [Example 310, 2,4(1H,3H)-Pyrimidinedione, 3-[3-(hydroxymethyl)-1,2-benzisothiazol-5-yl]-1-methyl-6-(trifluoromethyl)-, nitrate (ester)]
Cyperus iria; [12]
  herbicidal effect rating, CYPIR: 9.0
Cyperus iria; [13]
  herbicidal effect rating, CYPIR: 9.0
Cyperus iria; [14]
  herbicidal effect rating, CYPIR: 9.0
Cyperus iria; [15]
  herbicidal effect rating, CYPIR: 9.0
Sagittaria pygmaea, L.; [12]
  herbicidal effect rating, SAGPY: 0.0
Sagittaria pygmaea, L.; [13]
  herbicidal effect rating, SAGPY: 0.0
Sagittaria pygmaea, L.; [14]
  herbicidal effect rating, SAGPY: 0.0
Sagittaria pygmaea, L.; [15]
  herbicidal effect rating, SAGPY: 0.0
[1]; [12]
  herbicidal effect rating, CYPSE: 0.0
[1]; [13]
  herbicidal effect rating, CYPSE: 0.0
[1]; [14]
  herbicidal effect rating, CYPSE: 0.0
[1]; [15]
  herbicidal effect rating, CYPSE: 0.0
[2]; [12]
  herbicidal effect rating, ECHORC: 0.0
[2]; [13]
  herbicidal effect rating, ECHORC: 0.0
[2]; [14]
  herbicidal effect rating, ECHORC: 2.0
[2]; [15]
  herbicidal effect rating, ECHORC: 3.0
[3]; [12]
  herbicidal effect rating, MOOVA: 9.0
[3]; [13]
  herbicidal effect rating, MOOVA: 9.0
[3]; [14]
  herbicidal effect rating, MOOVA: 9.0
[3]; [15]
  herbicidal effect rating, MOOVA: 9.0

## CONC(=O)c1nsc2ccc(-n3c(=O)cc(C(F)(F)F)n(C)c3=O)cc12 [Example 403, 1,2-Benzisothiazole-3-carboxamide, 5-[3,6-dihydro-3-methyl-2,6-dioxo-4-(trifluoromethyl)-1(2H)-pyrimidinyl]-N-methoxy-]
Cyperus iria; [8]
  CYPIR: 5.0
Cyperus iria; [9]
  CYPIR: 6.0
Cyperus iria; [10]
  CYPIR: 7.0
Cyperus iria; [7]
  herbicidal effect rating, CYPIR: 9.0
Sagittaria pygmaea, L.; [8]
  SAGPY: 3.0
Sagittaria pygmaea, L.; [9]
  SAGPY: 9.0
Sagittaria pygmaea, L.; [10]
  SAGPY: 9.0
Sagittaria pygmaea, L.; [7]
  herbicidal effect rating, SAGPY: 9.0
[1]; [8]
  CYPSE: 0.0
[1]; [9]
  CYPSE: 0.0
[1]; [10]
  CYPSE: 2.0
[1]; [7]
  herbicidal effect rating, CYPSE: 4.0
[2]; [8]
  ECHORC: 0.0
[2]; [9]
  ECHORC: 2.0
[2]; [10]
  ECHORC: 4.0
[2]; [7]
  herbicidal effect rating, ECHORC: 4.0
[3]; [8]
  MOOVA: 7.0
[3]; [9]
  MOOVA: 6.0
[3]; [10]
  MOOVA: 9.0
[3]; [7]
  herbicidal effect rating, MOOVA: 9.0

## CCC(C)S(=O)(=O)NC(=O)c1nsc2ccc(-n3c(=O)cc(C(F)(F)F)n(C)c3=O)cc12 (centres unmarked) [Example 395, 1,2-Benzisothiazole-3-carboxamide, 5-[3,6-dihydro-3-methyl-2,6-dioxo-4-(trifluoromethyl)-1(2H)-pyrimidinyl]-N-[(1-methylpropyl)sulfonyl]-]
Cyperus iria; [4]
  herbicidal effect rating, CYPIR: 0.0
Cyperus iria; [5]
  herbicidal effect rating, CYPIR: 0.0
Cyperus iria; [6]
  herbicidal effect rating, CYPIR: 0.0
Cyperus iria; [7]
  herbicidal effect rating, CYPIR: 3.0
Sagittaria pygmaea, L.; [4]
  herbicidal effect rating, SAGPY: 0.0
Sagittaria pygmaea, L.; [5]
  herbicidal effect rating, SAGPY: 2.0
Sagittaria pygmaea, L.; [6]
  herbicidal effect rating, SAGPY: 4.0
Sagittaria pygmaea, L.; [7]
  herbicidal effect rating, SAGPY: 5.0
[1]; [4]
  herbicidal effect rating, CYPSE: 0.0
[1]; [5]
  herbicidal effect rating, CYPSE: 0.0
[1]; [6]
  herbicidal effect rating, CYPSE: 0.0
[1]; [7]
  herbicidal effect rating, CYPSE: 0.0
[2]; [4]
  herbicidal effect rating, ECHORC: 0.0
[2]; [5]
  herbicidal effect rating, ECHORC: 0.0
[2]; [6]
  herbicidal effect rating, ECHORC: 2.0
[2]; [7]
  herbicidal effect rating, ECHORC: 3.0
[3]; [4]
  herbicidal effect rating, MOOVA: 9.0
[3]; [5]
  herbicidal effect rating, MOOVA: 9.0
[3]; [6]
  herbicidal effect rating, MOOVA: 9.0
[3]; [7]
  herbicidal effect rating, MOOVA: 9.0
